In BindingDB's records for doi:10.1021/jm058276a (Duquesne University, 2006):

Target: T1, Dihydrofolate reductase (Homo sapiens, UniProt P00374)
T1 sequence (P00374 whole entry): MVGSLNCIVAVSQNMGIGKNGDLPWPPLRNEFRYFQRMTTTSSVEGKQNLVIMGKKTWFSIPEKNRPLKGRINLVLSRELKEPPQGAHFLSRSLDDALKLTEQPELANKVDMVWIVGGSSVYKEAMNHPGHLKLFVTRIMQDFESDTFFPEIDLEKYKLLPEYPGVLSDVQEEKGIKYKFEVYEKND
Assay: Dihydrofolate Reductase (DHFR) Assay
Conditions: pH 7.4; 30 °C
Method: DHFRs were assayed spectrophotometrically in the reaction buffer solution containing dihydrofolate. The reaction was initiated with an amount of enzyme yielding a change in optical density at 340 nm of 0.015/min.

| IC50 | Structure (SMILES) |
| --- | --- |
| > 31 µM | CCc1[nH]c2nc(N)[nH]c(=O)c2c1Sc1c(C)cccc1C [2-amino-5-[(2,6-dimethylphenyl)sulfanyl]-6-ethyl-3H,4H,7H-pyrrolo[2,3-d]pyrimidin-4-one] |
| > 27 µM | CCc1[nH]c2nc(N)[nH]c(=O)c2c1Sc1ccc(Cl)c(Cl)c1 [2-amino-5-[(3,4-dichlorophenyl)sulfanyl]-6-ethyl-3H,4H,7H-pyrrolo[2,3-d]pyrimidin-4-one] |
| > 27 µM | CCc1[nH]c2nc(N)nc(O)c2c1Sc1cccc(Br)c1 [2-amino-5-[(3-bromophenyl)sulfanyl]-6-ethyl-3H,4H,7H-pyrrolo[2,3-d]pyrimidin-4-one] |
| > 31 µM | CCc1[nH]c2nc(N)nc(O)c2c1Sc1cccc(Cl)c1 [2-amino-5-[(3-chlorophenyl)sulfanyl]-6-ethyl-3H,4H,7H-pyrrolo[2,3-d]pyrimidin-4-one] |
| > 26 µM | CCc1[nH]c2nc(N)nc(O)c2c1Sc1ccc(Br)cc1 [2-amino-5-[(4-bromophenyl)sulfanyl]-6-ethyl-3H,4H,7H-pyrrolo[2,3-d]pyrimidin-4-one] |
| > 24 µM | CCc1[nH]c2nc(N)[nH]c(=O)c2c1Sc1cc(C(F)(F)F)cc(C(F)(F)F)c1 [2-amino-5-{[3,5-bis(trifluoromethyl)phenyl]sulfanyl}-6-ethyl-3H,4H,7H-pyrrolo[2,3-d]pyrimidin-4-one] |
| > 32 µM | CCc1[nH]c2nc(N)nc(O)c2c1Sc1ccc(F)cc1 [2-amino-6-ethyl-5-[(4-fluorophenyl)sulfanyl]-3H,4H,7H-pyrrolo[2,3-d]pyrimidin-4-one] |
| > 29 µM | CCc1[nH]c2nc(N)nc(O)c2c1Sc1ccc([N+](=O)[O-])cc1 [2-amino-6-ethyl-5-[(4-nitrophenyl)sulfanyl]-3H,4H,7H-pyrrolo[2,3-d]pyrimidin-4-one] |
